According to ChEMBL document CHEMBL1142769, “A preliminary study of the metabolic stability of a series of benzoxazinone derivatives as potent neuropeptide Y5 antagonists” (Bioorg Med Chem Lett, 2005):

Key:
[1] = Half life period after 1 hour in Rat liver microsomes at 37 degree C an incubation concentration of 10 uM
[2] = Inhibitory concentration required for Metabolic stability after 1 hour at an incubation concentration of 10 uM; format: ADME
[3] = Half life period after 1 hour in human liver microsomes at 37 degree C an incubation concentration of 10 uM
[4] = Metabolic stability after 1 hour in Rat liver microsomes at 37 degree C an incubation concentration of 10 uM
[5] = Metabolic stability after 1 hour in human liver microsomes at 37 degree C an incubation concentration of 10 uM

Structure (SMILES) | half-life at 1 h, 10 µM ([1]; liver microsomes) | IC50 [2] | half-life at 1 h, 10 µM ([3]; liver microsomes) | half-life at 1 h, 10 µM ([1]; microsomes) | remaining at 1 h, 10 µM [4] | half-life at 1 h, 10 µM ([3]; microsomes) | remaining at 1 h, 10 µM [5]
O=C(CN1CCC(N2C(=O)OCc3c(F)cccc32)CC1)Nc1ccc2[nH]c3ccccc3c2c1 | 19.3 min | 0.461 µM | 95 min | – | – | – | –
O=C(CN1CCC(N2C(=O)OCc3ccc(Cl)cc32)CC1)Nc1ccc2sc3ccccc3c2c1 | – | 0.135 µM | – | 32.7 min | 24% | 28.4 min | 19.6%
